Experimental findings from patent US11746103B2, “ALK-5 inhibitors and uses thereof” (Sumitomo Pharma Oncology, Inc., priority 2020, dated 2023) are described below.

Series [1] deals with human CD4+CD45RA+ naïve T cells. The series is described as follows: In vitro Treg differentiation study. It counts as cell-based. As to conditions: CD3/CD28+IL2+TGFβ, 5 days. As for the experimental part: The effect of EX-11 on Treg differentiation was evaluated using human CD4^+CD45RA^+ naïve T cells from Lonza. CD4^+/CD45RA^+ naïve T cells were treated with EX-11, CD3/CD28 ([…] Technologies) and 10 ng/ml of IL-2 (Thermo Fisher Scientific) with or without 5 ng/ml TGFβ (R&D Systems) in ImmunoCult™-XF T cell expansion medium for 5 days. Flow cytometry was performed using anti-human FoxP3 staining kit (BD biosciences) to evaluate the frequency of CD4^+CD25^+Foxp3^+ Treg cells.

Series [2] deals with COV434 cells (wild-type FOXL2). The series is described as follows: FOXL2 cell viability assay (Cell Titer Glo), COV434. The class given is cell-based. The settings on record: Homo sapiens, 72 h, 3 days. As to the method: EX-11 was submitted to a cell viability assay in KGN and COV434 cell lines. KGN cells are derived from FOXL2^C134W AGCT of a person with a recurrent metastatic GCT. COV434 cells are derived from FOXL2WT JGCT of a person with a recurrent metastatic GCT. The cells were seeded in triplicate in 96 well culture plates and treated with nine, 3-fold dilutions of EX-11 or DMSO for 6 days (KGN) or 3 days (Cov434), which represented 3 cell doublings, respectively. Viability was assessed by Cell Titer Glo (Promega).

A further series has as its system pSmad2 in KGN cells. In words: pSmad2 Luminex assay in KGN cell line. It counts as cell-based. The settings on record: 2 hours, read-out: pSmad2 pathway inhibition. As for the experimental part:
KGN cells were incubated with three 10-fold dilutions of EX-11 or DMSO for 2 hours. Cells were harvested and lysed, and protein concentration was quantified by BCA. 10 μg of total protein was added to the assay plate provided in the Milliplex TGFβ 6-plex kit with GAPDH MapMate beads, and the manufacturer's protocol was followed. Data was collected on the MagPix Xmap (Luminex).

The procedure of series [3]:
Female, athymic nude mice (aged 6-8 weeks) were randomized to one of 12 study arms (n=3 per arm) (Table 16) and weighed prior to dosing. Mice were dosed via oral gavage either once daily (QD), or bi-daily (BID) for five days. […] The vehicle for PF-06952229 (PF) was 10% DMSO, 40% PEG300, 5% tween-80, 45% saline. For the vehicle alone group in this study, the PF-06952229 vehicle was used. At the end of each day for 10 days, mice were weighed, and symptoms of toxicity (if present) were recorded. A qualitative determination of overall toxicity was made based on the number and severity of symptoms for each cohort. The safety margin was determined at the end of day 10 based on the following equation: (maximum tolerated dose)/(minimum effective dose).

The test system of series [4] is HLA class I expression in KGN cells. In words: HLA expression in KGN cell line (flow cytometry). The class given is cell-based, human. As to conditions: 72 hours. As for the experimental part: KGN cells were treated with 30 nM EX-11, 300 nM EX-11 or DMSO in the absence or presence of 1 ng/mL TGFβ for 72 hours. Cells were then washed, collected and incubated in the dark at 4° C. for 1 hour with a pan HLA class I antibody conjugated to PE (BD Pharmingen cat #560168). The cells were washed and analyzed by flow cytometry on an Attune N×T.

The test system of series [5] is EMT6 tumors. In words: Combination of EX-11 and abraxane in EMT6 TNBC syngeneic model. It counts as in vivo, mouse. The settings on record: abraxane 30 mg/kg IP Q7d; EX-11 150 mg/kg PO BID. The source says: Abraxane (product of Bristol Myers Squibb) was purchased from St Josef Hospital (Freiburg, Germany). The vehicle for abraxane was 0.9% NaCl.
The test system of series [6] is EMT6 tumors. The series is described as follows: Immunohistochemistry (CD31, CD45) of EMT6 tumors. The class given is in vivo, mouse. The source says:
EX-11 is an ALK5 inhibitor that has been proposed to affect multiple processes in the tumor microenvironment through downregulation of TGF-β signaling, including vasculature remodeling and leukocyte infiltration. The objective of this study was to compare the levels of CD31 and CD45, subject to different treatment conditions in 4T1, EMT6, and S91 tumors. CD31 is an established marker of vascular differentiation, and CD45 is an established marker of leukocytes.
For IHC analyses, tumors from three syngeneic models of cancer were used: • 1) Example L: 4T1 (triple-negative breast cancer [TNBC]); Balb/c mice • 2) Example K: EMT6 (TNBC); Balb/C mice • 3) Example M: S91 (melanoma); DBA/2 mice
Tumors were fixed in formalin for 48 hours, then stored in […] prior to paraffin embedding. Embedded blocks were sectioned at […] and placed on glass slides for IHC staining.
Leica Biosystems Bond Software and Leica Bond Rx Research Stainer were used per protocol to stain tissue sections. […] Images were manually scored by a pathologist, blinded to treatment information. […] CD45 was scored by calculating the number of CD45-positive cells divided by the total number of viable nucleated cells within the whole tumor region(s). CD31 density was scored by calculating the total number of CD31 positive vessels divided by the whole tumor area (mm^2).

In series [7] the test system is EMT6 tumors. In words: EMT6 syngeneic TNBC model.
Description: The objective of this study was to evaluate preclinically the in vivo therapeutic efficacy of combining EX-11 with anti-PD-L1 and/or anti-PD-1 therapy for the treatment of EMT6 tumors orthotopically implanted in the mammary fat pad of female Balb/C mice.
Balb/C mice (aged 7-9 weeks) were inoculated orthotopically in the right mammary fat pad with EMT6 breast cancer cells (2.5×10^5) in 0.1 ml of PBS. Tumor measurements were performed via digital calipers. Once the mean tumor size reached approximately 85 mm^3 (day 11), 120 mice were randomized to 8 treatment arms (15 mice per arm).
The anti-PD-L1 inhibitor used in this study was a product of BioXcell (Cat #: BE0101, Clone #: 10F.9G2). The vehicle for the anti-PD-L1 inhibitor was PBS. The anti-PD-1 inhibitor used in this study was a product of BioXcell (Cat #: BE0146, Clone #: RMP1-14). The vehicle for the anti-PD-1 inhibitor was PBS. These inhibitors were injected intraperitoneally (i.p.), bi-weekly (BIW) for 3 weeks. The vehicle for EX-11 was NMP (10%)+20% Solutol in WFI (Water for Injection) (90%). The vehicle used for EX-11 was also used for the “Vehicle” arm of the study. EX-11 and the vehicle were delivered via oral gavage (p.o.), bi-daily (BID) for 21 days.
Body weights and tumor volumes were measured twice per week. Tumor volumes were measured in two dimensions using a caliper, and the volume was expressed in mm^3 using the formula: V=(L×W×W)/2, where V is tumor volume, L is tumor length (the longest tumor dimension) and W is tumor width (the longest tumor dimension perpendicular to L). Tumor Growth Inhibition (TGI) reported was TGI at the final study day, and is expressed as Mean % Δ Inhibition and was calculated using the following formula: [(C−C0)−(T−T0)/(C−C0)]*100%, where C refers to the tumor volume of the vehicle on the final study day, C0 to the tumor volume of the vehicle on the first day of dosing, T to the tumor volume of the treatment on a specific day of dosing and T0 to the tumor volume of the treatment group on the first day of dosing.
The first phase of the study was the dosing phase and was terminated at day 21, where 3 animals were sacrificed, and plasma and tumor samples were collected for biomarker analysis. The remaining 12 animals were monitored without dosing to determine mean survival.
For a further series, the system named is Cloudman S91 melanoma. The series is described as follows: Cloudman S91 melanoma syngeneic study. The settings on record: single agents.

Description for Cloudman S91 melanoma: The objective of this study was to evaluate preclinically the in vivo therapeutic efficacy of EX-11+/−anti-PD-1 therapy for the treatment of subcutaneous Cloudman S91 melanoma model in DBA/2 mice.
Female, DBA/2 mice (aged 7-9 weeks) were inoculated subcutaneously in the right flank region with Cloudman S91 melanoma cells (2×10^5) in 0.1 ml of PBS. Once the mean tumor size reached approximately 100 mm^3 (day 19), 60 mice were randomized to 6 treatment arms (10 mice per arm).
The anti-PD-1 inhibitor used in this study was a product of Crownbio/OEM (Cat #: CVP033, Lot #: 0920L765). The vehicle for the anti-BD-1 inhibitor was PBS. The drug was injected intraperitoneally (i.p.), bi-weekly (BIW) for 3 weeks. The vehicle for EX-11 was 1000 tween-20, 900% ddH2O. The vehicle used for EX-11 was also used for the “Vehicle” arm of the study. EX-11 and the vehicle were delivered via oral gavage (p.o.), bi-daily (BID) for 21 days.
Body weights and tumor volumes were measured 3 times per week. Tumor volumes were measured in two dimensions using a caliper, and the volume was expressed in mm^3 using the formula: V=(L×W×W)/2, where V is tumor volume, L is tumor length (the longest tumor dimension) and W is tumor width (the longest tumor dimension perpendicular to L).
The study was terminated 50 days post-inoculation. […]

A word on the IC50: it is the concentration at which inhibition is half-maximal. By inhibition is commonly meant the change of the read-out against control, counted positive when it falls. Regarding `Cc1cccc2c(Nc3ccnc(Nc4cccc(N5CCOCC5)c4)n3)cnnc12` [EX-11, N4-(8-methylcinnolin-4-yl)-N2-(3-morpholinophenyl)pyrimidine-2,4-diamine], the “Treg frequency (CD4+CD25+Foxp3+ Treg cells as percentage of cells not treated with TGFβ)” value in [1] (30 nM) turned out to be 480%; in series [1] (300 nM), 342%; in series [1] (3000 nM) it was 126%. In [2], this molecule yielded an IC50 of more than 10 µM. In addition, the inhibition at 0.01 µM in the series on pSmad2 in KGN cells (Homo sapiens, 10 nM) is 17%. In addition, the inhibition at 0.1 µM in the series on pSmad2 in KGN cells (Homo sapiens, 100 nM) amounted to 74%. Also, the inhibition at 1 µM with pSmad2 in KGN cells (Homo sapiens, 1,000 nM) is 97%. The molecule further had a minimum effective dose in [3] (BID, based on prior studies with EX-11) of 150 mg/kg. For the same molecule, the “safety margin (maximum tolerated dose)/(minimum effective dose)” value in [3] (female, athymic nude, mouse, in vivo, 10 days) is recorded as not below 6.7 fold. For the same molecule, in series [4] (30 nM, 300 nM + 1 ng/mL TGFβ), the “HLA class I expression repressed by TGFβ stimulation” value is “reversed”. For the same molecule, the “increase of HLA class I expression” value in [4] (absence of TGFβ) is recorded as “up to 2 fold”. Also, in the series with EMT6 tumors [5], the “tumor volume compared to vehicle” value is recorded as “did not show efficacy compared to vehicle”. Moreover, in the series with EMT6 tumors [6], the “CD31 staining (blood vessel density)” value is listed as “no difference in CD31 staining”. In addition, in the series on EMT6 tumors [6] (vs anti-PD-1 and vehicle groups), the “CD45 (percentage of CD45+ cells)” value was “increased”. Besides, the “tumor growth inhibition (TGI) compared to vehicle” value with EMT6 tumors [7] (EX-11 at 75 mg/kg PO BID x 21 days) is on record as “did not result in significant TGI”; in the series with EMT6 tumors [7] (EX-11 at 150 mg/kg PO BID x 21 days), 37%. Moreover, the “Mean survival” value with EMT6 tumors [7] (EX-11 at 150 mpk where given) turned out to be 25 days. Also, the tumor pliability entry with EMT6 tumors [7] (all groups receiving EX-11 vs vehicle or checkpoint antibody single agent) is given as “substantially more pliable”. For the same molecule, in the series on Cloudman S91 melanoma, the “survival compared with the vehicle control” value was “did not exhibit an increase in survival”.
